According to patent US8552035B2, “Phenanthrenone compounds, compositions and methods” (Pfizer Inc., priority 2008, dated 2013):

What was measured:
[1] = system: osteocalcin; experiment: 28-day mouse side-effect model, serum osteocalcin suppression; format: in vivo; conditions: oral gavage 28 days
Description: (§1) 10-12 week old female Swiss Webster mice (Taconic, Germantown, N.Y., U.S.A.) weighing 27-29 grams are used in accordance with the guidelines of the Institutional Animal Care and Use Committee and in accordance with NIH guidelines on laboratory animal welfare. Mice are acclimated to the Pfizer animal facility for 3-7 days prior to being placed on study. Prednisolone and DAGR compounds are administered by oral gavage for a total of 28 days. Each treatment group generally contains 8-10 mice. To establish a dosing regimen for the studies, a pilot pharmacodynamic time course experiment is conducted to quantify TNFa repression after a single ED80 dose (determined from the acute LPS endotoxemia mouse model). […] DAGR compounds vary in their required frequency of doses.
Body weights are measured on the first and last day of each experiment. Blood samples are obtained after ˜3 weeks of dosing for steady-state pharmacokinetic analysis. To assess compound effects on LPS-induced TNF-a, all mice receive an intraperitoneal injection of LPS (Salmonella Typhosa, Sigma, St. Louis, L-7895) 2.5 hr after the last dose on day 28. Mice are sacrificed 90 min. after LPS administration. Serum samples are assayed for osteocalcin and TNFa using the Linco multiplex assay (St. Charles, Mo.) and Luminex 100 (Austin, Tex.). Samples are diluted 1:20 and the assay is run according to manufacturer's instructions. An osteocalcin standard is purchased separately from Biomedical Technologies Incorporated (Stoughton, Mass.). Serum insulin is measured to assess compound effects on insulin resistance. Insulin was measured using the UltraSensitive Mouse EIA kit from Alpco Diagnostics (Salem, N.H.) following the manufacturer's protocol.
(§2) ED50 and ED80 values are obtained for the various parameters using four-parameter logistic fits of data. For each experiment/dose group, outliers are detected by calculating the number of standard deviations each mouse's value was from the mean of their group and then dividing by the standard deviation of the group. The means and standard deviations used in this calculation omitted the value being examined so that, if it were an outlier, it would have no influence. If the value being examined is more than 2.5 standard deviations from the mean, it was not used in the rest of the calculations.
(§3) Percent inhibition values are then calculated for each animal using the means of the vehicle and 10 mpk prednisone control groups. The individual mouse percent inhibition values are then fit to a four-parameter logistic model using the area under curve mean for each group. Since all four parameters are estimated and the lower plateau is not fixed at 0% and the upper plateau was not fixed at 100%, the ED50 and ED80 values are calculated by using an inverse calibration formula for a response equal to 50% or 80%. The designation “nd” means not determined.

[2] = system: bone formation rate; experiment: 28-day mouse side-effect model, cortical bone histomorphometry (bone formation rate); format: in vivo; conditions: oral gavage 28 days, tibia cortical bone formation rate
Description: as §1
During the in-life portion of each study, mice received two IP injections of the fluorochrome calcein (C-0875; Sigma-Aldrich; 20 mg/kg; 200 μL/mouse), dissolved in 2% sodium bicarbonate, on days 1 and 26 for bone histomorphometry measurements. Fluorochrome labels incorporate into the bone mineral and allow measurement of bone formation rate. During the tissue harvest, the left tibia is excised and cleaned for cortical histomorphometry measurements. After all skin and muscle are removed, tibiae are placed in 70% ethanol (4° C.) in the dark for a minimum of 24 hours.
Ground transverse sections are used for histomorphometric analysis of cortical bone^1. Bones are sectioned using a low speed saw (Isomet, Buehler, Lake Bluff, Ill.) equipped with a diamond wafer blade. The end of each tibia is removed proximal to tibia-fibula synostosis and a […] cross-section is cut. Using a roughened glass plate and a cork, sections are ground to […] until transparent and all labels distinguishable under a fluorescent microscope. Sections are dehydrated using the following solutions for a minimum of 2 minutes each: 1) 70% ethanol, 2) 95% ethanol, 3) 100% ethanol, 4) 50/50 ethanol/xylene, and 5) xylene (twice) (Sigma, St. Louis, 534056). Sections are mounted using Eukitt Quick Mounting Medium (Sigma, St. Louis, 03989) and cover-slipped. Using the Osteomeasure Bone Analysis Program (Decatur, Ga.), bone formation rate is calculated by tracing the 1st and 2nd fluorescent labels in addition to tracing the inner and outer perimeter of the bone. Bone formation rate is calculated by the following equation: (Interlabel Width/Label Interval)*(Labeled Perimeter/Bone Perimeter). At least 5 samples are measured from each treatment group in each study.
as §2, §3

In the case of `Cc1ncccc1NC(=O)c1ccc2c(c1)C(=O)C[C@@H]1C[C@@](O)(c3ccccc3)[C@](C)(O)C[C@@]21Cc1ccccc1` [Example 1, (4bR,6R,7R,8aS)-4b-benzyl-6,7-dihydroxy-6-methyl-N-(2-methylpyridin-3-yl)-10-oxo-7-phenyl-4b,5,6,7,8,8a,9,10-octahydrophenanthrene-2-carboxamide], the ED50 at 28 days ([1]; female, Swiss Webster, read-out: Osteocalcin Suppression (ED50 dose)) is reported as 0.081 mg/kg, the “Osteocalcin Suppression (ED80 dose)” value [1] is reported as 0.35 and the ED50 at 28 days ([2]; female, Swiss Webster, read-out: BFR (ED50 dose)) is reported as 0.12 mg/kg. The “BFR (ED80 dose)” value [2] was 0.87.
